Measured values from publication PMC12651750 (Cells, 2025).
Where two headings read alike, the source gives them in different places.

Experiments:
HDAC1 = HDAC1 (Homo sapiens, UniProt Q13547); experiment: In vitro HDAC enzymatic inhibition assay (HDAC kit, fluorescence)
Experimental: (§4) Enzymatic assays were performed by Shanghai ChemPartner according to the HDAC kit protocol. […] Fluorescence was recorded at 355 nm excitation and 460 nm emission on a Synergy MX reader (PerkinElmer Life Sciences, Boston, MA, USA). IC50 values were derived from dose–response curves.

HDAC6 = molecular target: T1, HDAC6 (Homo sapiens, UniProt Q9UBN7); experiment: as above
T1 sequence (Q9UBN7 1-1215): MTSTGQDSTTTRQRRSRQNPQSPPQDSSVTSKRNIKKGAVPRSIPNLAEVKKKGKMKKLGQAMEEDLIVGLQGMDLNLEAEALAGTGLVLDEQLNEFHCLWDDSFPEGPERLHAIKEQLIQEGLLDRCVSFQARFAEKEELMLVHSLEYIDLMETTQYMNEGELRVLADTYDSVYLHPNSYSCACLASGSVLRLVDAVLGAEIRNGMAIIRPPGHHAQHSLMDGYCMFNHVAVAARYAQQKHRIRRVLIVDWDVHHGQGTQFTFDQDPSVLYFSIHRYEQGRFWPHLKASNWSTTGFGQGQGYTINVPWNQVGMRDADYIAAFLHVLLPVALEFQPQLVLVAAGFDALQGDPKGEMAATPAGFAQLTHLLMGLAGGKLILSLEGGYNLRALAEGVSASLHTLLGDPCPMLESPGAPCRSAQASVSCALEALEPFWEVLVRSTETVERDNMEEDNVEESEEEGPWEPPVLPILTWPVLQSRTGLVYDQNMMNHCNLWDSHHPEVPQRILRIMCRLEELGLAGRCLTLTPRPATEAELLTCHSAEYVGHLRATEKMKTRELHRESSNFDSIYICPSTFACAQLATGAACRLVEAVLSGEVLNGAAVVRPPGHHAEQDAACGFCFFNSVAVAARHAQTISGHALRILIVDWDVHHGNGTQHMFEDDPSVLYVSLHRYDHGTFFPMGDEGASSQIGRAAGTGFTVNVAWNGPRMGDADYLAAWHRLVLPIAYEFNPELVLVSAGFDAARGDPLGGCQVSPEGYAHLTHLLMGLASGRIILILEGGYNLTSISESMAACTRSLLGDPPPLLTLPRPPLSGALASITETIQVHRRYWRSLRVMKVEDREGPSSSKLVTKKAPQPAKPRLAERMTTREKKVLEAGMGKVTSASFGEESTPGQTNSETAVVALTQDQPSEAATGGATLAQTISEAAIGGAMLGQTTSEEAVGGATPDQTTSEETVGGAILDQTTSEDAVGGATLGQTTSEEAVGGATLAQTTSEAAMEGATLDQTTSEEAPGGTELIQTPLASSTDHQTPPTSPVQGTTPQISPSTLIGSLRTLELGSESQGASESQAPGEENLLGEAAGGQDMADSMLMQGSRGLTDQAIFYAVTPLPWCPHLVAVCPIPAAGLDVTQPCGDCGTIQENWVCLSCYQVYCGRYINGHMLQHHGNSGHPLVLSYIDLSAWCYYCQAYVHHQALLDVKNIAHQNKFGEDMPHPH
Experimental: as §4

[1] = tested on: Jurkat, human leukemic T cell line; experiment: Anti-proliferation MTT / CCK-8 assay; assay type: cell-based; details: Homo sapiens, Jurkat, 72 h
Experimental: These cells were purchased from the National Collection of Authenticated Cell Cultures (Shanghai, China).
(§1) The concentration of the cell suspension was adjusted to the appropriate concentration with fresh medium (the number of cells was about 30–40% of the bottom area of the well plate). 150 μL (about 1 × 10^4 cells) of prepared cell suspension containing different concentrations of NBU-2 were added to a 96-microtiter plate, and 3 replicate wells were set up for each concentration. If the cells were adherent, the cells were first allowed to grow overnight in 96 microtiter plates until the cells were adherent, and then the old medium was replaced with the drug-containing medium. The plates were incubated in a 5% CO2 cell incubator at 37 °C for 72 h. Then, 15 μL of MTT solution was added to each well, 100 μL of 10% SDS solution (pH = 2) was added after 4 h, and the plate was incubated at 37 °C with 5% CO2 overnight to fully dissolve the crystals.
(§2) The cells (about 1 × 10^4 cells) were treated with different concentrations of NBU-2 and DMSO control for different times (24 h, 48 h, 72 h), with 3 replicate wells for each concentration. Incubate at 37 °C in a 5% CO2 cell culture incubator. After a predetermined time, 10 μL of CCK-8 was added to each well and incubated for 2 h. The absorbance was measured at the excitation wavelength of 450 nm.

[2] = tested on: 4T1, mouse breast cancer cell line; experiment: Anti-proliferation MTT / CCK-8 assay; assay type: cell-based; details: 72 h
Description: (§3) K562, human erythroleukemia line; HL-60, human leukemic cell line; Jurkat, human leukemic T cell line; CCRF-CEM, human leukemic lymphoblasts; U937, human histiocytic lymphoma; HCT-116, human colorectal cancer cell line; A549, human lung cancer cell line; Hep G2, human hepatoma cell lines; MDA-MB-231, MCF-7, human breast cancer cell line; 4T1, mouse breast cancer cell line; PC12, pheochromocytoma of the rat adrenal medulla; HUVEC, human umbilical vein endothelial cells. These cells were purchased from the National Collection of Authenticated Cell Cultures (Shanghai, China).
as §1, with “crystals. Finally, the absorbance value of each well was measured at 570 and 655 nm.” for “crystals.”
as §2

[3] = tested on: A549, human lung cancer cell line; experiment: Anti-proliferation MTT / CCK-8 assay; assay type: cell-based; details: A549, read-out: IC50 proliferation A549, heading: IC50 proliferation A549, 72 h, mean ± SEM of three independent assays
Description: as §3
as §1, with “crystals. Finally, the absorbance value of each well was measured at 570 and 655 nm.” for “crystals.”
as §2

[4] = tested on: CCRF-CEM, human leukemic lymphoblasts; experiment: Anti-proliferation MTT / CCK-8 assay; assay type: cell-based; details: read-out: IC50 proliferation CCRF-CEM, heading: IC50 proliferation CCRF-CEM, 72 h, mean ± SEM of three independent assays
Description: as §3
as §1, with “crystals. Finally, the absorbance value of each well was measured at 570 and 655 nm.” for “crystals.”
as §2

[5] = tested on: HCT-116, human colorectal cancer cell line; experiment: Anti-proliferation MTT / CCK-8 assay; assay type: cell-based; details: HCT-116, read-out: IC50 proliferation HCT-116, heading: IC50 proliferation HCT-116, 72 h, mean ± SEM of three independent assays
Description: as §3
as §1, with “crystals. Finally, the absorbance value of each well was measured at 570 and 655 nm.” for “crystals.”
as §2

[6] = tested on: HL-60, human leukemic cell line; experiment: Anti-proliferation MTT / CCK-8 assay; assay type: cell-based; details: HL-60, read-out: IC50 proliferation HL-60, heading: IC50 proliferation HL-60, 72 h, mean ± SEM of three independent assays
Description: as §3
as §1, with “crystals. Finally, the absorbance value of each well was measured at 570 and 655 nm.” for “crystals.”
as §2

[7] = tested on: Hep G2, human hepatoma cell lines; experiment: Anti-proliferation MTT / CCK-8 assay; assay type: cell-based; details: HepG2, read-out: IC50 proliferation HepG2, heading: IC50 proliferation HepG2, 72 h, mean ± SEM of three independent assays
Description: as §3
as §1, with “crystals. Finally, the absorbance value of each well was measured at 570 and 655 nm.” for “crystals.”
as §2

[8] = tested on: K562, human erythroleukemia line; experiment: Anti-proliferation MTT / CCK-8 assay; assay type: cell-based; details: K562, read-out: IC50 proliferation K562, heading: IC50 proliferation K562, 72 h, mean ± SEM of three independent assays
Description: as §3
as §1, with “crystals. Finally, the absorbance value of each well was measured at 570 and 655 nm.” for “crystals.”
as §2

[9] = tested on: MDA-MB-231, human breast cancer cell line; experiment: Anti-proliferation MTT / CCK-8 assay; assay type: cell-based; details: MDA-MB-231, read-out: IC50 proliferation MDA-MB-231, heading: IC50 proliferation MDA-MB-231, 72 h, mean ± SEM of three independent assays
Description: as §3
as §1, with “crystals. Finally, the absorbance value of each well was measured at 570 and 655 nm.” for “crystals.”
as §2

[10] = tested on: PC12, pheochromocytoma of the rat adrenal medulla; experiment: Anti-proliferation MTT / CCK-8 assay; assay type: cell-based; details: PC-12, 72 h
Description: as §3
as §1, with “crystals. Finally, the absorbance value of each well was measured at 570 and 655 nm.” for “crystals.”
as §2

[11] = tested on: U937, human histiocytic lymphoma; experiment: Anti-proliferation MTT / CCK-8 assay; assay type: cell-based; details: U-937, read-out: IC50 proliferation U937, heading: IC50 proliferation U937, 72 h, mean ± SEM of three independent assays
Description: as §3
as §1, with “crystals. Finally, the absorbance value of each well was measured at 570 and 655 nm.” for “crystals.”
as §2

Chain of HDAC1 (Q13547 whole entry): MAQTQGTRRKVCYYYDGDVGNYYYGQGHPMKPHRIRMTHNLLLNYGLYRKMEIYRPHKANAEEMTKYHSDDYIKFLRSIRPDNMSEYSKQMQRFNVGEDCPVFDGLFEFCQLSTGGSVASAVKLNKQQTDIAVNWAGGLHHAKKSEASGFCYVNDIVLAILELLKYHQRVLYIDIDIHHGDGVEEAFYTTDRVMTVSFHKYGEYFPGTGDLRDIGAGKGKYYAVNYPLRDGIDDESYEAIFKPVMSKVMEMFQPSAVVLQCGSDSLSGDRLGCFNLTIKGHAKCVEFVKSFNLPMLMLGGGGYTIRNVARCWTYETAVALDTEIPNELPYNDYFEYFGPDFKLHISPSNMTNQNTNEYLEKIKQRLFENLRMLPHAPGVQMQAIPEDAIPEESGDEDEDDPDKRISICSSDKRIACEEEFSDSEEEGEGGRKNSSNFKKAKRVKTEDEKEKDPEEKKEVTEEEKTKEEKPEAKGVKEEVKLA

| IC50 (HDAC1) [nM] | IC50 (HDAC6) [nM] | IC50 ([1]; read-out: IC50 against Jurkat cells) [nM] | IC50 ([1]; read-out: IC50 proliferation Jurkat, heading: IC50 proliferation Jurkat, mean ± SEM of three independent assays) [nM] | IC50 [2] [nM] | IC50 [3] [µM] | IC50 [4] [nM] | IC50 [5] [µM] | IC50 [6] [nM] | IC50 [7] [nM] | IC50 [8] [nM] | IC50 [9] [µM] | IC50 [10] [nM] | IC50 [11] [nM] | SMILES |
| --- | --- | --- | --- | --- | --- | --- | --- | --- | --- | --- | --- | --- | --- | --- |
| 242 ± 15 | 114 ± 28 |  |  |  |  |  |  |  |  |  |  |  |  | O=C(NO)c1ccc(CNc2ccnc3ccccc23)cc1 [NBU-1, N-hydroxy-4-((quinolin-4-ylamino)methyl)benzamide] |
|  |  | 2230 | 2230 ± 220 | > 50 | > 50 | 1660 ± 340 | 3.86 ± 1.09 | 860 ± 70 | 500 ± 20 | 1650 ± 640 | 9.75 ± 1.78 | > 50 | 1310 ± 380 | Nc1cc(F)ccc1NC(=O)c1ccc(CNC(=O)/C=C/c2cccnc2)cc1 [Chidamide, reference compound] |
